Experimental data from publication PMC8222276 (Communications Biology, 2021).
Values belong to the compound of their own block, whether it stands above or below them.

How the values were obtained:
HUVECs = experiment: cell proliferation (72 h) of HUVECs; type: cell-based, human; settings: HUVEC, 72 h
Method: (§1) Data are analysed using a three-parameter non-linear regression curve or the operational model of receptor agonism. g–h Signalling bias plots were calculated as ∆Log(τ/KA) (g) or ∆∆Log(τ/KA) (h) for each agonist and for each signalling pathway. […] Solid arrows indicate known pathways. Dashed arrows represent possible pathways.
Both endothelial cell lines and HCMs were seeded at a density of 2500 cells/well in a clear flat bottom 96-well plate (Corning, UK) and incubated at 37 °C in 5% CO2. After 24 h, cells were exposed to test compounds or vehicle, in complete endothelial cell growth media (HUVECs) or myocyte growth media (HCMs). Cells were incubated for a further 72 h at 37 °C in 5% CO2. After 72 h incubation, 5 μl of Cell Counting Kit–8 (CCK-8, Sigma, UK) was added to each well and cells were then incubated for another 2 h at 37 °C in 5% CO2 and in the dark[61]. The absorbance of each well was measured using a Mithras LB940 microplate reader with an excitation of 450 nm. The absorbance is directly proportional to the number of viable cells. Cell proliferation was calculated as a percentage of number of cells treated with vehicle alone.
(§2) All sample sizes were determined, and data analysed, in accordance with the guidelines described by Curtis M et al.[65]. All experiments were appropriately controlled using ‘system pathway’ agonists. If any of these pathway controls generated inappropriate responses, then the entire data set was removed from analysis. […] Data analysis for cAMP accumulation, Ca^2+i mobilisation, NO accumulation, pERK1/2 activation, and cell proliferation assays were performed in GraphPad Prism 8.4 (GraphPad Software, San Diego). Data were fitted to obtain concentration–response curves using either the three-parameter logistic equation using to obtain values of Emax and pEC50 or the operational model of agonism. Statistical differences were analysed using one-way ANOVA followed by Dunnett’s post-hoc (for comparisons amongst more than two groups) or unpaired Student’s t test with Welch’s correction (for comparison between two groups). To account for the day-to-day variation experienced from the cultured cells, we used the maximal level of cAMP accumulation from cells in response to 100 μM forskolin stimulation was used as a reference, 10 μM ionomycin for Ca^2+i assays, 10 μM phorbol 12-myristate 13-acetate (PMA) for pERK1/2 activation, 10 μM acetylcholine for NO production and 10 μM VEGF for cell proliferation. […] Where appropriate the operational model for receptor agonism[27] was used to obtain efficacy (τ) and equilibrium disassociation constant (KA) values. In both cases, this normalisation removes the variation due to differences in days but retains the variance for control values. The means of individual experiments were combined to generate the curves shown. Having obtained values for τ and KA these were then used to quantify signalling bias as the change in Log(τ/KA)[19],[28]. Error for this composite measure was propagated by applying Eq. 1.1 PooledSEM=(SEMA)^2+(SEMB)^2 Where, SEMA and SEMB are the standard error of measurement A and B.

[1] = target: T1, AM1 receptor (CLR-RAMP2) in HUVECs (Homo sapiens, UniProt O60895+Q16602); experiment: antagonism of agonist-induced cAMP accumulation in HUVECs; type: cell-based; settings: HUVEC; 100 nM
T1 construct: HUVECs specifically express the AM1 receptor alone; host or cells: primary HUVECs
T1 sequence (Q16602 23-461): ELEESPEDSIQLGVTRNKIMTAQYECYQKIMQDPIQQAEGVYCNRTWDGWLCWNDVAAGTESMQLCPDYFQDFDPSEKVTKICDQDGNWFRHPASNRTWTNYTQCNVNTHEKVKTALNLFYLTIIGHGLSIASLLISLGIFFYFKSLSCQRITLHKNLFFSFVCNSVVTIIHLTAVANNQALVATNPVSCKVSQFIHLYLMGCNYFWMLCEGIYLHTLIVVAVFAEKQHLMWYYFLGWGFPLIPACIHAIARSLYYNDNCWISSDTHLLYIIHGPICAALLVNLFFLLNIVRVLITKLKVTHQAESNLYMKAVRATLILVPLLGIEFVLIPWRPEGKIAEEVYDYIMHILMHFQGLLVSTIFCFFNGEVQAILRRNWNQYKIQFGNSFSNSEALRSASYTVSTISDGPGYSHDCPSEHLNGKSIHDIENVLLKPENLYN
T1 sequence (O60895 43-175): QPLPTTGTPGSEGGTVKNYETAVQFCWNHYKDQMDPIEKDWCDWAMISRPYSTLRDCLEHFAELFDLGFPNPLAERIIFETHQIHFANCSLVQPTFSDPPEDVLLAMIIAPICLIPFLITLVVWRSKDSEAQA
Method: (§3) All primary cell lines were cultured as above. On the day of the experiment media was removed and cells washed with PBS, before being dissociated with Trypsin-EDTA 0.05% (Gibco, UK) and then resuspended in PBS/BSA (0.1%) (Sigma, UK). Cells were immediately plated for use in cAMP assay as per the manufacturer’s instructions, reagents used were provided by the LANCE® cAMP detection assay kit (PerkinElmer, Boston, MA, USA), in 384 well optiplates (PerkinElmer (Boston, MA, USA)) at 2000 cells/well in 5 μl aliquots. […] Cells were incubated with compound for 30 min prior to adding detection buffer[28],[60]. Plates were incubated for a further 60 min (room temperature) and then read on a plate reader (Mithras LB 940 microplate reader (Berthold technologies, Germany)). All responses were normalised to 100μM forskolin (Tocris, UK). Antagonist studies were performed in the same way through co-stimulation of the relevant concentration. Alongside control-treated cell. Experiments with PTX (Sigma, UK) required pretreatment (16 h) prior to assays.

[2] = target: T2, CGRP receptor (CLR-RAMP1) in human cardiomyocytes (HCMs) (Homo sapiens, UniProt O60894+Q16602); experiment: antagonism of agonist-induced cAMP accumulation in HCMs; type: cell-based; settings: HCM; 100 nM
T2 construct: primary human cardiomyocytes (HCMs) since these cells only expressed CLR and RAMP1; host or cells: primary human cardiomyocytes (HCMs)
T2 sequence (Q16602 23-461): as the sequence (Q16602 23-461) above
T2 sequence (O60894 27-148): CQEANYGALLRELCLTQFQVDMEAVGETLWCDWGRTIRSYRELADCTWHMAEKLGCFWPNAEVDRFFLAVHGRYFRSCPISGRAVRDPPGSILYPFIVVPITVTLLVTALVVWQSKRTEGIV
Method: as §3

AM receptors = settings: at concentrations of up to 10 micromolar; ref Doods et al., Br. J. Pharmacol., 129, (2000), pp. 420-423; cited from earlier work
[3] = target: T1, AM1 receptor (CLR-RAMP2) in HUVECs; experiment: mobilisation of Ca2+i in HUVECs; type: cell-based; settings: HUVEC; Gαq/11/14 inhibitor co-treatment, 100 nM
Method: as §1
All cell lines were plated at 20,000 cells/well on 96-well black clear-bottom plates (Costar, UK) 24 h before the experiment. […] Cells were then washed twice with calcium-free HBSS, then were left in 100 μl calcium-free HBSS for the duration of the assay. […] Data was normalised to the response seen with 10 μM Ionomycin.
(§4) All sample sizes were determined, and data analysed, in accordance with the guidelines described by Curtis M et al.[65]. All experiments were appropriately controlled using ‘system pathway’ agonists. If any of these pathway controls generated inappropriate responses, then the entire data set was removed from analysis. […] Statistical differences were analysed using one-way ANOVA followed by Dunnett’s post-hoc (for comparisons amongst more than two groups) or unpaired Student’s t test with Welch’s correction (for comparison between two groups). […] Having obtained values for τ and KA these were then used to quantify signalling bias as the change in Log(τ/KA)[19],[28]. […]

[4] = target: T1, AM1 receptor (CLR-RAMP2) in HUVECs; experiment: total nitric oxide production in HUVECs; type: cell-based; settings: HUVEC
Method: as §1
Endothelial cells and HCMs were cultured as above. 24 h prior to assay cells were plated on Costar 96-well black clear bottom plates at 40,000 cells/well. The assay was performed according to the manufacturer’s protocol. Briefly, cells pre-incubated with NO dye and assay buffer 1 (Fluorometric Nitric Oxide Assay Kit, Abcam, UK) for 30 min at 37 °C in 5% CO2. Any inhibitors requiring 30 min pre-treatment (YM/L-NAME/DMSO control) were added at this point. Ligand stimulation occurred immediately after this for 15 min at 37 °C in 5% CO2. Stain and ligand solution was removed, assay buffer II was added, and wells were read immediately. The absorbance was measured using a Tecan T200 (Thermo Fisher Scientific UK) reader with an excitation/emission of 540/590 nm. Endothelial cell responses were normalised to 10 μM acetylcholine. HCM responses were normalised to 10 μM isoproterenol[63],[64].
as §2

[5] = target: T1, AM1 receptor (CLR-RAMP2) in HUVECs; experiment: cAMP accumulation in HUVECs; type: cell-based; settings: HUVEC; calcitonin receptor agonists
Method: as §1
All primary cell lines were cultured as above. On the day of the experiment media was removed and cells washed with PBS, before being dissociated with Trypsin-EDTA 0.05% (Gibco, UK) and then resuspended in PBS/BSA (0.1%) (Sigma, UK). […] Plates were incubated for a further 60 min (room temperature) and then read on a plate reader (Mithras LB 940 microplate reader (Berthold technologies, Germany)). […]
as §4, with “al.[65].” for “al.[65]. All experiments were appropriately controlled using ‘system pathway’ agonists. If any of these pathway controls generated inappropriate responses, then the entire data set was removed from analysis.”

Compound: C=C[C@@]1(C)CC(=O)[C@]2(O)[C@@]3(C)[C@@H](O)CCC(C)(C)[C@@H]3[C@H](O)[C@H](OC(C)=O)[C@@]2(C)O1 [forskolin]
- effect of forskolin on cell proliferation (HUVECs): concentration-dependent inhibition of cell proliferation

Compound: NCCCC[C@H](NC(=O)[C@@H](Cc1cc(Br)c(O)c(Br)c1)NC(=O)N1CCC(N2Cc3ccccc3NC2=O)CC1)C(=O)N1CCN(c2ccncc2)CC1 [olcegepant]
- effect on agonist-induced cAMP accumulation [1]: had little effect
- effect on cAMP accumulation for all three agonists [2]: inhibit cAMP accumulation for all three agonists
- action on AM receptors (AM receptors): no actions on AM receptors

- effect of YM-254890 on Ca2+i responses [3]: all responses could be abolished
- effect of YM-254890 on NO release [4]: abolished all NO release
Compound: YM-254890

Compound: amylin: calcitonin receptor agonist (KCNTATCATQRLANFLVHSSNNFGAILSSTNVGSNTY; Islet amyloid polypeptide; UniProt P10997 34-70, looked up)
- functional response [5]: unable to detect the presence of its transcript (Fig. 1a) or obtain a functional response

Compound: calcitonin: calcitonin receptor agonist
- functional response [5]: unable to detect the presence of its transcript (Fig. 1a) or obtain a functional response
